Series [1] has as its target T1, angiotensin-I-converting enzyme (ACE) (Oryctolagus cuniculus, UniProt P12822).
T1 construct: tissue Sigma; host or cells: rabbit lung (acetone powder, borate buffer extract supernatant)
T1 sequence (P12822 34-1310): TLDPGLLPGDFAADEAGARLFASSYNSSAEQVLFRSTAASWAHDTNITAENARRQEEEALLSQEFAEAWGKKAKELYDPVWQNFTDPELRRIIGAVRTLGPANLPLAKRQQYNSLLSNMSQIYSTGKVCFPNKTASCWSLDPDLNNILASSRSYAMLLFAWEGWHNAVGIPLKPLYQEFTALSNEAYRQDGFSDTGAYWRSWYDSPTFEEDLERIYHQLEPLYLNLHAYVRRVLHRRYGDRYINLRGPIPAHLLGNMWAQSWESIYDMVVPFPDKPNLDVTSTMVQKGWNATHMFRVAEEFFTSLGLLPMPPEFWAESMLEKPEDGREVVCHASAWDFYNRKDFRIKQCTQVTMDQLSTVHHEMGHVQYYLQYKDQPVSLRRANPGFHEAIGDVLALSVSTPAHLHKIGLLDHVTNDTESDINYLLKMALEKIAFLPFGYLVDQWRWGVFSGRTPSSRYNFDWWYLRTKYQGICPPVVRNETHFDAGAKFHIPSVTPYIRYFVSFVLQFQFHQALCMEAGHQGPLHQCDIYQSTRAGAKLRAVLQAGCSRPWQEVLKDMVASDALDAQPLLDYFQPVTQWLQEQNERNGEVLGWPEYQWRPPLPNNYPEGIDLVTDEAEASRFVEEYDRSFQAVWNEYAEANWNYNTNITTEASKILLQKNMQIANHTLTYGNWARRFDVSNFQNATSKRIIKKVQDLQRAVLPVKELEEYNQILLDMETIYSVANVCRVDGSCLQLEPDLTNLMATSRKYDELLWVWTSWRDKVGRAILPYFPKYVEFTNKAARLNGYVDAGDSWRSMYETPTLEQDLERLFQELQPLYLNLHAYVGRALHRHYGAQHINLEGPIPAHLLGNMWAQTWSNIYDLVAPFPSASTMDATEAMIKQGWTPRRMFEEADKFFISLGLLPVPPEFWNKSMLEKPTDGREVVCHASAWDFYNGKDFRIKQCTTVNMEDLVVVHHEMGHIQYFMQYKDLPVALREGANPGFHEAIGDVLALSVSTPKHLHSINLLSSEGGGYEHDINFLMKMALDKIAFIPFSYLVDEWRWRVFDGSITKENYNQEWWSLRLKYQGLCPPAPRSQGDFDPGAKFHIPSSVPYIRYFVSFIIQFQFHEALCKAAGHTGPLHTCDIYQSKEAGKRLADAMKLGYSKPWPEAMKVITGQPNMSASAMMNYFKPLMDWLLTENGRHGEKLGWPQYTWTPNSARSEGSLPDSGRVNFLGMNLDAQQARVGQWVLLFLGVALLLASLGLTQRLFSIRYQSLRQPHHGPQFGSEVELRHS
Nature of the series: ACE (Angiotensin I-Converting Enzyme) inhibition activity, Hip-His-Leu substrate, absorbance at 228 nm. Type of series: biochemical, rabbit. Here is the method:
As shown in the results of Table 8, the hydrolyzed Salicornia salty sauces had very high functional polyphenol and flavonoid contents compared to the non-hydrolyzed salty sauce. Thus, as an indicator for antihypertensive activity, angiotensin-I-converting enzyme (ACE) inhibition activity was evaluated. As the test sample, each salty sauce, adjusted to a salt content of 14%, was added at a concentration of 1 to 5 μL/mL to the reaction solution, and then measured.
Angiotensin-II, produced by ACE, promotes an increase in blood pressure and secretion of antidiuretic hormone aldosterone, and suppresses the emission of water and sodium to thus increase blood circulation, thus causing hypertension. […] Specifically, 1 g of a rabbit lung acetone powder (Sigma Col) in 50 μL of the sample was mixed with 25 μL (2.5 unit) of an ACE supernatant dissolved in a 0.1 M sodium borate buffer containing 10 mL of 0.3 M NaCl, 50 μL of a 0.1 M sodium borate buffer (pH 8.3) containing 0.3 M NaCl, and 25 μL of a sample solution at various concentrations (0.25, 0.5 and 1.0 mg/mL), and then preincubated at 37° C. for 10 min. Further, 50 μL of a Hip-His-Leu substrate solution was added, and the resulting mixture was allowed to react at 37° C. for 30 min, after which the reaction was stopped by the addition of 100 μL of 1 N HCl. 1 mL of ethyl acetate was added, and the resulting reaction mixture was agitated in a vortex for 1 min and centrifuged at 3,000 g for 15 min, after which 0.8 mL of the separated ethyl acetate supernatant (extract) was recovered. The supernatant was warmed in a hood and thus completely volatilized, and was then dissolved in 1 mL of a sodium borate buffer under the same conditions, after which absorbance at 228 nm was measured and ACE inhibition activity was calculated.
During purification, the organic solvent fractions (at concentrations of 10, 25, 50 μg/mL) were measured for ACE inhibition activity in the same manner as in Example 3-2.

The nature of series [2]: Solubility (physical and chemical properties of Compound A). In kind it is physicochemical.

Molecules are shown by their SMILES.

Molecule `COc1cc2c(=O)c(-c3ccccc3O)coc2cc1O` [EDS-LH-7b, 7-hydroxy-3-(2′-hydroxyphenyl)-6-methoxy-4H-1-benzopyran-4-one] gave a 50% inhibitory concentration (IC50) in series [1] of 15.8 µM. Besides, the inhibition at 10 µg/mL in series [1] (at a concentration of 10 μg/mL) was at least 95%. Further, the “ACE inhibition activity, rank among compared samples/fractions” value in series [1] (compared with the other sauces or with the other fractions of the same purification step) is “the greatest”. Also, the Solubility result in series [2] (in methanol, ethanol, ethyl acetate, and chloroform) is reported as “Soluble”; in series [2] (in water), “insoluble”.

In turn, `O=c1cc(-c2ccc(O)c(O)c2)oc2cc(O)cc(O)c12` [Luteolin, reference compound] showed a concentration for half-maximal inhibition (IC50) in series [1] of 93.3 µM.

What is called IC50 is the midpoint of a concentration-inhibition curve. The low end stands for higher potency, the high end for lower potency. For orientation: inhibition means the share of the control response that was lost under treatment.
